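Five concentrations, 48 hours, 96-well plates. GI50 = concentration required for 50% inhibition of growth.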 Calls of active or inactive are those of the source. Cut-off read from the data, not from the text of the source: active = GI50 up to about 1.1 µM and inactive = higher.
What was measured:
Assay in all cases: NCI tumour cell line growth inhibition, 48 h
K562 = tested on: K562
RPMI-8226 = tested on: RPMI-8226
SF-268 = tested on: SF-268
ACHN = tested on: ACHN
M14 = tested on: M14
786-0 = tested on: 786-0
MOLT-4 = tested on: MOLT-4
SNB-19 = tested on: SNB-19
SN12C = tested on: SN12C
SK-MEL-5 = tested on: SK-MEL-5
UACC-62 = tested on: UACC-62
HOP-62 = tested on: HOP-62
EKVX = tested on: EKVX
HT-29 = tested on: HT-29
UACC-257 = tested on: UACC-257
A498 = tested on: A498
U-251 = tested on: U-251
NCI/ADR-RES = tested on: NCI/ADR-RES
MDA-N = tested on: MDA-N
OVCAR-4 = tested on: OVCAR-4

SMILES | GI50 (K562) | GI50 (RPMI-8226) | GI50 (SF-268) | GI50 (ACHN) | GI50 (M14) | GI50 (786-0) | GI50 (MOLT-4) | GI50 (SNB-19) | GI50 (SN12C) | GI50 (SK-MEL-5) | GI50 (UACC-62) | GI50 (HOP-62) | GI50 (EKVX) | GI50 (HT-29) | GI50 (UACC-257) | GI50 (A498) | GI50 (U-251) | GI50 (NCI/ADR-RES) | GI50 (MDA-N) | GI50 (OVCAR-4)
NC(=O)c1nnsc1NC=O | > 100 µM (inactive) | > 100 µM (inactive) | > 100 µM (inactive) | > 100 µM (inactive) | > 100 µM (inactive) | > 100 µM (inactive) | > 100 µM (inactive) | > 100 µM (inactive) | > 100 µM (inactive) | > 100 µM (inactive) | > 100 µM (inactive) | > 100 µM (inactive) | > 100 µM (inactive) | > 100 µM (inactive) | > 100 µM (inactive) | > 100 µM (inactive) | > 100 µM (inactive) | > 100 µM (inactive) | > 100 µM (inactive) | –
CC(=O)N1CCN(CCCCN2c3ccccc3Sc3cc(N=[N+]=[N-])ccc32)CC1 | 8.65 µM (inactive) | 10.5 µM (inactive) | 18.2 µM (inactive) | 14.9 µM (inactive) | – | 15.6 µM (inactive) | 8.47 µM (inactive) | 14.5 µM (inactive) | 15.6 µM (inactive) | – | 2.69 µM (inactive) | 14.3 µM (inactive) | 18.2 µM (inactive) | 13.6 µM (inactive) | 24.5 µM (inactive) | – | 14.4 µM (inactive) | 12.6 µM (inactive) | 16.7 µM (inactive) | –
C=C(C)C#CC(O)(C(=O)OC1CCN(C)CC1)C(C)C (stereo unspecified) | > 100 µM (inactive) | > 100 µM (inactive) | > 100 µM (inactive) | > 100 µM (inactive) | > 100 µM (inactive) | > 100 µM (inactive) | > 100 µM (inactive) | > 100 µM (inactive) | > 100 µM (inactive) | > 100 µM (inactive) | > 100 µM (inactive) | > 100 µM (inactive) | > 100 µM (inactive) | > 100 µM (inactive) | > 100 µM (inactive) | – | > 100 µM (inactive) | 29.4 µM (inactive) | > 100 µM (inactive) | –
O=C1c2cccc3cc([N+](=O)[O-])cc(c23)C(=O)N1CCCN1CCN(CCCNc2ccc3ncn4c5ccccc5c(=O)c2c34)CC1 | – | < 0.005 µM (active) | < 0.005 µM (active) | < 0.005 µM (active) | < 0.005 µM (active) | < 0.005 µM (active) | < 0.005 µM (active) | < 0.005 µM (active) | < 0.005 µM (active) | – | < 0.005 µM (active) | < 0.005 µM (active) | < 0.005 µM (active) | < 0.005 µM (active) | < 0.005 µM (active) | < 0.005 µM (active) | < 0.005 µM (active) | < 0.005 µM (active) | < 0.005 µM (active) | 0.00547 µM (active)
COc1cccc2c1C(=O)c1ccc3cc(CCl)cc(O)c3c1C2=O | 0.29 µM (active) | 0.182 µM (active) | 0.379 µM (active) | 0.233 µM (active) | 0.229 µM (active) | 0.174 µM (active) | 0.238 µM (active) | 0.897 µM (active) | 0.163 µM (active) | 0.364 µM (active) | 0.202 µM (active) | 0.483 µM (active) | 1.09 µM (active) | 0.207 µM (active) | 0.269 µM (active) | 1.19 µM (inactive) | 0.366 µM (active) | 0.353 µM (active) | 0.231 µM (active) | –
O=C1CC[C@@]23CC(=O)O[C@@H]2CCCC3C1 (stereo partly specified) | > 100 µM (inactive) | > 100 µM (inactive) | > 100 µM (inactive) | > 100 µM (inactive) | > 100 µM (inactive) | > 100 µM (inactive) | > 100 µM (inactive) | > 100 µM (inactive) | > 100 µM (inactive) | > 100 µM (inactive) | > 100 µM (inactive) | > 100 µM (inactive) | > 100 µM (inactive) | > 100 µM (inactive) | > 100 µM (inactive) | – | > 100 µM (inactive) | > 100 µM (inactive) | > 100 µM (inactive) | > 100 µM (inactive)
O=C1C/C(=C\O)C(=O)c2ccccc2N1 | > 100 µM (inactive) | – | > 100 µM (inactive) | > 100 µM (inactive) | > 100 µM (inactive) | > 100 µM (inactive) | > 100 µM (inactive) | > 100 µM (inactive) | > 100 µM (inactive) | > 100 µM (inactive) | > 100 µM (inactive) | > 100 µM (inactive) | > 100 µM (inactive) | > 100 µM (inactive) | > 100 µM (inactive) | > 100 µM (inactive) | > 100 µM (inactive) | > 100 µM (inactive) | > 100 µM (inactive) | > 100 µM (inactive)
O=C(/C=C/c1ccc2ccccc2c1)NCc1ccc(C(=O)NCCc2ccccc2)cc1 | 52 µM (inactive) | > 100 µM (inactive) | > 100 µM (inactive) | > 100 µM (inactive) | > 100 µM (inactive) | 64.3 µM (inactive) | > 100 µM (inactive) | > 100 µM (inactive) | > 100 µM (inactive) | > 100 µM (inactive) | > 100 µM (inactive) | > 100 µM (inactive) | – | – | > 100 µM (inactive) | > 100 µM (inactive) | > 100 µM (inactive) | > 100 µM (inactive) | > 100 µM (inactive) | > 100 µM (inactive)
C[N+]1(CCC(=O)c2ccco2)CC2CCC(CC2)C1 (stereo unspecified) | > 100 µM (inactive) | > 100 µM (inactive) | > 100 µM (inactive) | > 100 µM (inactive) | > 100 µM (inactive) | > 100 µM (inactive) | > 100 µM (inactive) | > 100 µM (inactive) | > 100 µM (inactive) | > 100 µM (inactive) | > 100 µM (inactive) | – | > 100 µM (inactive) | > 100 µM (inactive) | > 100 µM (inactive) | > 100 µM (inactive) | > 100 µM (inactive) | > 100 µM (inactive) | > 100 µM (inactive) | > 100 µM (inactive)
COC(=O)c1ccc(Oc2nc3ccccc3nc2-c2cccs2)cc1 | > 10 µM (inactive) | – | 21.3 µM (inactive) | 71.3 µM (inactive) | 89.5 µM (inactive) | 34.4 µM (inactive) | > 100 µM (inactive) | 27.5 µM (inactive) | > 100 µM (inactive) | > 100 µM (inactive) | 40.6 µM (inactive) | 11.9 µM (inactive) | > 100 µM (inactive) | > 100 µM (inactive) | > 100 µM (inactive) | – | – | 64.1 µM (inactive) | > 100 µM (inactive) | > 100 µM (inactive)
CCN(C(=O)N[C@@H](CC(C)C)C(=O)NCC(=O)OC)c1ccccc1 | 38.4 µM (inactive) | > 100 µM (inactive) | – | > 100 µM (inactive) | > 100 µM (inactive) | > 100 µM (inactive) | > 100 µM (inactive) | > 100 µM (inactive) | > 100 µM (inactive) | 75.5 µM (inactive) | 30.8 µM (inactive) | > 100 µM (inactive) | > 100 µM (inactive) | > 100 µM (inactive) | 25.9 µM (inactive) | – | > 100 µM (inactive) | > 100 µM (inactive) | > 100 µM (inactive) | > 100 µM (inactive)
COC(=O)CC(C#N)(OP1(=O)OC(c2ccccc2)C(C)N1C)c1ccccc1 (stereo unspecified) | 24.3 µM (inactive) | 25.1 µM (inactive) | 30.3 µM (inactive) | 25.9 µM (inactive) | 31.3 µM (inactive) | 24 µM (inactive) | 25.5 µM (inactive) | 39.3 µM (inactive) | 29.6 µM (inactive) | 64.3 µM (inactive) | 19.8 µM (inactive) | 30.7 µM (inactive) | 21.7 µM (inactive) | 23.8 µM (inactive) | 20.6 µM (inactive) | 44.6 µM (inactive) | 23.1 µM (inactive) | 40.1 µM (inactive) | 26.8 µM (inactive) | –
COc1ccc(-c2nc(N(C)C)c3ccccc3n2)cc1 | 13.9 µM (inactive) | 5.56 µM (inactive) | 15.9 µM (inactive) | 7.64 µM (inactive) | 14.1 µM (inactive) | 10.9 µM (inactive) | 3.91 µM (inactive) | 17.7 µM (inactive) | 7.89 µM (inactive) | 13.1 µM (inactive) | 12.7 µM (inactive) | 16.6 µM (inactive) | 3.66 µM (inactive) | 5.51 µM (inactive) | 16.4 µM (inactive) | – | 20.5 µM (inactive) | 5.09 µM (inactive) | 14.9 µM (inactive) | 32.6 µM (inactive)
Cc1cc(N(CCC#N)CCC#N)ccc1/C=C(\NC(=O)/C=C/c1ccccc1)C(=O)Nc1ccc(Cl)cc1 | 0.364 µM (active) | 10 µM (inactive) | > 100 µM (inactive) | 1.83 µM (inactive) | 9.16 µM (inactive) | > 100 µM (inactive) | 38.1 µM (inactive) | > 100 µM (inactive) | > 75.7 µM (inactive) | 0.179 µM (active) | 0.577 µM (active) | – | > 80.2 µM (inactive) | > 14.3 µM (inactive) | > 46 µM (inactive) | > 100 µM (inactive) | > 7.53 µM (inactive) | > 100 µM (inactive) | 5.01 µM (inactive) | 30.5 µM (inactive)
COc1cccc(-c2nc(N)c(C#N)c3c2CCS(=O)(=O)c2ccc(C)cc2-3)c1 | 3.21 µM (inactive) | – | 31.6 µM (inactive) | > 100 µM (inactive) | 25.7 µM (inactive) | 22.6 µM (inactive) | 22.9 µM (inactive) | > 31.3 µM (inactive) | 44.4 µM (inactive) | 5.81 µM (inactive) | 17.7 µM (inactive) | 30.2 µM (inactive) | 50.6 µM (inactive) | 9.68 µM (inactive) | 34.1 µM (inactive) | 30.1 µM (inactive) | 36.6 µM (inactive) | 15.2 µM (inactive) | 3.08 µM (inactive) | > 100 µM (inactive)

Reference: ChEMBL document CHEMBL1201862, “PubChem BioAssay data set” (2004)
